From patent US20230090255A1, “MAGL INHIBITOR, PREPARATION METHOD THEREFOR AND USE THEREOF” (LUNAN PHARMACEUTICAL GROUP CORPORATION, priority 2019, published 2023) come the findings set out here.

Data set [1] in a line: Tissue distribution test in mice. It is filed as in vivo. The conditions noted are these: 16 mg/kg subcutaneous injection. Further details: content in the brain (tissue distribution): unit not given here.
Data set [2] deals with T1, recombinant human protein MAGL (Homo sapiens, UniProt Q99685).
T1 construct: purchased Cayman
T1 sequence (Q99685 1-303): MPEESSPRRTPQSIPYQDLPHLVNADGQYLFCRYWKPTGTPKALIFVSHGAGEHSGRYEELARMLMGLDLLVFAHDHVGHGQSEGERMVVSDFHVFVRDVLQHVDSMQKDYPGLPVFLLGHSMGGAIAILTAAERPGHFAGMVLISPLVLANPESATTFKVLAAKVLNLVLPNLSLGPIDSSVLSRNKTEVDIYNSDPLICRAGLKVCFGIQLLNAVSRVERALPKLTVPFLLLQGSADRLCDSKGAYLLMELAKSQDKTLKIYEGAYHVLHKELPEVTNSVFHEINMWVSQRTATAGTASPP
Nature of the data set: MAGL enzyme analysis (Cayman MAGL inhibitor screening kit). The class given is biochemical. The conditions noted are these: 4-nitrophenylacetic acid substrate, absorbance 410 nm, read-out: MAGLXIC50. On the procedure: 150 µL 1Xassay buffer, 10 µL recombinant human protein MAGL and 10 µL different concentrations of MAGL inhibitors (six points within 1 nM to 1000 nM) were added to per well of a 96-well plate. JZL195 (a positive control inhibitor) served as a positive control well, after incubation for 5 min at room temperature, per well was added with 10 µL MAGL substrate, and […] were vibrated for 10 s and placed for 10 min at room temperature, then an absorbance was detected at 410 nm. […] Graphad Prism 5.0 was taken to calculate IC50 curves fitting each inhibitor.

The test system of data set [3] is reserpine-induced mice depression. As to the kind of experiment: Reserpine-induced mice depression. The conditions noted are these: for Autonomic activity / Awakening / Eyelid closure / Fear / Finger contact / Head touch / Upright: 2 h after reserpine 4 mg/kg. The arrangement: Awakening / Finger contact / Head touch / Fear / Autonomic activity / Eyelid closure / Upright: scale not given here. It is filed as in vivo, ICR mouse. On the procedure:
• Species: ICR mouse • Microbiological level: SPF • Quantity and sex of the animals purchased: male: 75; female: 75 • Quantity and sex of the animals used: male: 75; female: 75 • Body weight: 13-18 g when accepted
Group design: there were 50 pieces for each batch of animals and 3 batches in total; each batch of animals were randomly divided into 5 groups; low, middle and high-dose groups of the samples for test, blank control group and model group; a sample for test was tested per batch.
3.1 Animals were administrated via subcutaneous injection per day with doses of 4, 8 and 16 mg/kg for 6 d in total. 2 h later after the final administration, each animal was subcutaneously injected with 4 mg/kg reserpine except the blank control group; afterwards, indicators, such as, awakening, finger contact, fear, head touch, autonomic activity, upright and eyelid closure were determined 2 h later.
Data statistics and analysis were completed via a computer by SPSS 17.0 software and office 2016, and data statistics was inspected by Kruskal-Wallis. If the Kruskal-Wallis inspection result is significant ((P<0.05), multiple comparison inspection is further performed by a Mann-Whitney U nonparametric test method.

In data set [4] the test system is mice with inflammatory pain. As to the kind of experiment: Pain threshold of mice with inflammatory pain (complete Freund's adjuvant). The conditions noted are these: complete Freund's adjuvant paw model, positive control 10 mg/kg ig once per day. The class given is in vivo, SD mice. On the procedure:
[…] (180±20) g were injected with a complete Freund’s adjuvant (50 µL/piece) at the right rear plantar of mice, and mice in the control group were injected with the corresponding volume of 0.5% sodium carboxymethylcellulose to establish a paw edema inflammatory pain model. After modeling, the mice were administered for 7 d continuously, and administered intragastrically once per day. Pain thresholds (s) of the mice were respectively determined on the 1st, 3rd and 7th day before administration and after modeling at different periods of time.
Grouping and administration were the same as those of Example 40.

In data set [5] the test system is mice pain response induced by hot plate. Nature of the data set: Mice pain response induced by hot plate. It is filed as in vivo, ICR mice. The conditions noted are these: hot plate 55°C, positive control 10 mg/kg ig 7 d. How it is done: Female ICR mice (20±2) g were placed on an intelligent hot plate at 55±0.5° C., and latency (s) that the plantar of mice touched the hot plate until the occurrence of a hind paws licking response served as a pain threshold indicator; the mice (response latency <5 s or >30 s) or jumping mice were eliminated.
Grouping and administration were the same as those in Example 40.
The mice were continuously administered intragastrically for 7 consecutive days; the pain threshold of each group of mice was respectively determined once at 30, 60, 90 and 120 min after the final administration; the pain threshold greater than 60 s was calculated by 60 s.

Data set [6] deals with mice writhing caused by acetic acid. As to the kind of experiment: Mice writhing caused by acetic acid. The conditions noted are these: positive control 10 mg/kg ig. On the technique in general: An intraperitoneal irritant provokes the stretching counted in writhing tests.
Method: Each compound was prepared into a suspension by 0.5% sodium carboxymethylcellulose respectively, and then set according to the dose, and each administration group was administered intragastrically; the model group was administered intragastrically an equal volume of 0.5% sodium carboxymethylcellulose.
Mice were intraperitoneally injected with acetic acid to cause a large area and more lasting painful stimuli in deep enterocoelia, causing mice to produce writhing responses. After being administered for 1 h, each dose group was intraperitoneally injected with 0.7% acetic acid-normal saline solution (0.1 ml/10 g).
The time (pain latent time) that the mice started to appear writhing after being intraperitoneally injected with acetic acid was recorded.
The writhing response times of each mouse within 20 min were recorded after injecting acetic acid to cause pain, and then, the writhing inhibition ratio of each administration group was calculated.
Writhing inhibition ratio = [(writhing times of the control group -writhing times of the administration group)/writhing times of the control group] × 100%
Experimental data is shown by x±s and subjected to variance analysis by SPSS 15.0 software.
The test system of data set [7] is reserpine-induced mice migraine. Nature of the data set: Reserpine-induced mice migraine. The class given is in vivo, ICR mice. On the procedure:
The mice in the blank control group and model group were administered intragastrically via a solvent from the 5th day after modeling, and the rest groups of mice were respectively administered corresponding medicaments and doses for intragastric administration for 10 consecutive days; 1 h later after the final administration, the mice were weighed; blood was taken at inner canthus to detect blood coagulation time; whole blood was taken, and cerebrum was taken on an ice and preserved at -20° C. for the subsequent experiment.
Behavioral test: tail suspension activity was performed; the position 1 cm away from the tail of the mice was glued by an adhesive tape on the 9th day of the test, and the adhesive tape was penetrated by a steel needle, and hung in a dark box such that the mice were hung upside down; then the mice struggling times (total number of overturning from hanging) within 2 min were observed.
The mice were weighed 1 h later after the final administration; blood of inner canthus was taken via a capillary to detect the blood coagulation time.
Blood was taken to detect the content of 5-HT in serum via high-performance liquid chromatography. Cerebrum was taken on an ice and precooled and cleaned slightly with 0.5% sodium carboxymethylcellulose, and then sucked dry with a filter paper, and placed into a cryogenic tube, and preserved at -20° C. for further use, then the content of 5-HT in brain tissues was detected by high performance liquid chromatography.
5-HT test method: a sample was precipitated with 10% perchloric acid solution according to 1:1, and then centrifuged to take supernatant for test. Chromatographic conditions: the chromatographic column is a SHIMADZU VP-ODS C18 column (250*4.6 mm, 5 um), the mobile phase is a methanol-0.01 mol/L potassium acetate buffer solution (10:90, V/V, PH is adjusted to 4.00 with 0.2 mol/L citric acid) for gradient elution; the column temperature is 25° C., flow rate is 1.00 ml/min and test wavelength is 275 nm.

For a further data set, the system named is ulcerative colitis mice. Nature of the data set: Mice ulcerative colitis (DSS). The conditions noted are these: DSS mice, 100 mg/kg ig. The class given is in vivo, BALB/c mice. The text has this:
Healthy male SPF-level BALB/c mice (8-week old and body mass: (20±2) g).
Modeling: the mice were randomly divided into […] at the end of the quarantine, 10 pieces for each group. The mice in the normal group drank normal water freely, and the rest groups of mice drank 1.0%-1.5% DSS solution freely for modeling, 7 d later after modeling, the mice in the modeling group drank normal water freely for 7 d, and 14 d served as a modeling period for four continuous periods, and the mice in the modeling group were administered at the same time.
End point of the experiment: experimental administration was performed for four periods, and dissection was performed on the 3rd and 4th day of the recovery period of the 4th period.
Test indicators: the mice were weighed twice a week after the beginning of the administration; diarrhea and hematochezia of the mice were observed, and times of hematochezia were recorded.
At the end of the experiment, the mice were dissected and weighed, and narcotized to take blood, then serum was preserved at -80° C. Spleen was taken and weighed to calculate the spleen index. The content of IL-1β in serum was detected via ELISA. Colorectum was cut and taken to measure the length of colorectum, then immobilized by formaldehyde and dyed by HE to detect the pathological change.

On to `O=C(Nc1ccccc1)C1CCN(C(=O)c2ccc(Oc3ccccc3)cc2)CC1` [MAGLZ-II-01], for which the “content in the brain (tissue distribution)” value in data set [1] (1.0 h) came to 0; in data set [1] (2.0 h) it was 0.6; in data set [1] (5.0 h) it was 0.9. Also, the IC50 in data set [2] was 45 nM.
With `O=C(Nc1cc(Cl)cc(Cl)c1)C1CCN(C(=O)c2ccc3ccccc3c2)CC1` [MAGLZ-II-25], the IC50 in data set [2] was 139 nM.
For the compound `O=C(Nc1cccc(Cl)c1)C1CCN(C(=O)c2ccc(Oc3ccccc3)cc2)CC1` [MAGLZ-II-16], in data set [1], the “content in the brain, ranking of the test substances” value was “highest”. For the same compound, in data set [1] (1.0 h), the “content in the brain (tissue distribution)” value was 0. Moreover, in data set [1] (2.0 h), the “content in the brain (tissue distribution)” value amounted to 32.8. Moreover, the “content in the brain (tissue distribution)” value in data set [1] (5.0 h) is reported as 16.9. Moreover, the “effect on reserpine-induced depression (conclusion)” value in data set [3] (4, 8 and 16 mg/kg sc 6 d) is “has a certain effect”. In addition, in data set [3] (high dose 16 mg/kg sc 6 d), the Autonomic activity worked out at 0.6±0.6, the Awakening is on record as 2±0, the Eyelid closure is 0±0 and the Fear came out at 0±0. Moreover, in data set [3] (high dose 16 mg/kg sc 6 d), the Finger contact is listed as 1.6±0.8, the Head touch was 0.8±0.98 and the Upright stood at 0.4±1.2. Moreover, in data set [3] (low dose 4 mg/kg sc 6 d), the Autonomic activity is on record as 0±0, the Awakening is on record as 2±0, the Eyelid closure is 0±0 and the Fear stood at 0±0. In data set [3] (low dose 4 mg/kg sc 6 d), this compound had a Finger contact of 1.4±0.92, a Head touch of 0.4±0.8 and an Upright of 0±0. In data set [3] (middle dose 8 mg/kg sc 6 d), this compound yielded an Autonomic activity of 0.2±0.6, an Awakening of 1.8±0.6, an Eyelid closure of 0±0 and a Fear of 0±0. In data set [3] (middle dose 8 mg/kg sc 6 d), this compound had a Finger contact of 1.2±0.98, a Head touch of 0.8±0.98 and an Upright of 0±0.
On to `N[C@H](Cc1ccc(O)cc1)C(=O)Oc1cccc(C(=O)N2CCC(C(=O)Nc3cccc(Cl)c3)CC2)c1` [MAGLZ-II-11J], for which the IC50 in data set [2] came out at 1600 nM.
On to `O=C(Nc1cccc(Cl)c1)C1CCN(C(=O)c2ccc3cc(O)ccc3c2)CC1` [MAGLZ-II-29], for which, in data set [2], the IC50 came to 252 nM.
Regarding `COc1cccc(NC(=O)C2CCN(C(=O)c3ccc(Oc4ccccc4)cc3)CC2)c1` [MAGLZ-II-03], the IC50 in data set [2] was determined as 749 nM.
Consider `O=C(O)Cc1ccccc1Nc1c(Cl)cccc1Cl` [Positive medicament, diclofenac sodium, reference compound], for which the Pain threshold was 12.71 ± 2.55 s in data set [4] (0 d); 6.38±0.91^∗ s in data set [4] (1 d); 8.05±1.23^∗ s in data set [4] (3 d); 9.00±0.911^∗ s in data set [4] (7 d); 22.32 ± 6.76 s in data set [5] (30 min after final administration); 24.34 ± 8.19 s in data set [5] (60 min). Moreover, the figures for the Pain threshold in data set [5] (90 min) and in data set [5] (120 min) were 22.64 ± 6.48 s and 22.52 ± 6.91 s, respectively. In addition, in data set [6] (1 h before 0.7% acetic acid ip, within 20 min), the Writhing times amounted to 24.5±12.9. Moreover, the Latent time in data set [6] (time to first writhing) is 358.5 ± 172.7 s. Further, the Inhibition ratio in data set [6] (writhing inhibition) stood at 37.7%.
`CN(C)CCc1c[nH]c2ccc(C[C@H]3COC(=O)N3)cc12` [Zolmitriptan, reference compound] displayed a Blood coagulation time in data set [7] (reserpine 0.2 mg/kg sc mice, 0.5 mg/kg ig 10 d, 1 h after final administration) of 185.12±38.86 S. Moreover, the “brain tissue 5-HT” value in data set [7] (reserpine mice, 0.5 mg/kg ig 10 d) was 1.93 ± 0.37 nmol/g. Further, in data set [7] (reserpine mice, 0.5 mg/kg ig, 9th day), the “Times of tail suspension (struggling times within 2 min)” value is on record as 18.13 ± 3.94.
Take `O=C(Nc1ccc(Cl)c(Cl)c1)C1CCN(C(=O)c2ccc3ccccc3c2)CC1` [MAGLZ-II-24]: the IC50 in data set [2] came to 275 nM.
Turning to `Nc1ccc(O)c(C(=O)O)c1` [Mesalazine, reference compound], the “Total times of hematochezia within the four periods” value with ulcerative colitis mice is recorded as 32.80±4.96. This compound registered a Colon length in the data set with ulcerative colitis mice (four periods) of 6.66±0.68 cm. The IL-1 content in the data set on ulcerative colitis mice (serum, ELISA) was determined as 48.33 ± 6.49 pg/mL.
On to `COc1cccc(C(=O)N2CCC(C(=O)Nc3cccc(Cl)c3)CC2)c1` [MAGLZ-II-14], for which the IC50 in data set [2] came out at 333 nM.
For the compound `CCCC(=O)Oc1cccc(C(=O)N2CCC(C(=O)Nc3cccc(Cl)c3)CC2)c1` [MAGLZ-II-11F], the IC50 in data set [2] is 126 nM.
As for `O=C(c1cccc(O)c1)N1CCC(c2nc3cc(Cl)ccc3o2)CC1` [MAGLZ-II-30], the IC50 in data set [2] came to 11 nM.
As for `Cc1cc(C)cc(NC(=O)C2CCN(C(=O)c3ccc(Oc4ccccc4)cc3)CC2)c1` [MAGLZ-II-02], the “content in the brain (tissue distribution)” value in data set [1] (1.0 h) stood at 0; in data set [1] (2.0 h), 1.2; in data set [1] (5.0 h), 3.7. Also, the IC50 in data set [2] stood at 27 nM.
